Here are results for three molecules from patent US20140094465A1, “Compounds as S-Nitrosoglutathione Reductase Inhibitors” (N30 PHARMACEUTICALS, INC., priority 2011, published 2014).

In data set [1] the target is T1, S-nitrosoglutathione reductase (GSNOR) (Homo sapiens, UniProt P11766).
T1 construct: made in house; host or cells: E. coli
Put plainly: GSNOR assay (inhibition of GSNOR activity, NADH absorbance at 340 nm). It is filed as biochemical. The procedure, abridged: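 Recombinant GSNOR purified from E. coli, tag removed. Final conditions: 100 mM NaPO4 pH 7.4, 0.240 mM GSNO, 0.300 mM NADH, 0.5 μg/mL enzyme, 1% DMSO; NADH loss followed as 340 nm absorbance change over 3 min at 25 °C. Compounds 100–0.003 μM, triplicate; IC50 by curve analysis.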

The target of data set [2] is T2, GSNOR and NAD+ (Homo sapiens, UniProt P11766).
T2 construct: made in house; host or cells: E. coli
Put plainly: X-ray crystallography of inhibitor bound to GSNOR and NAD+, distance measurement. To be noted: crystal structure bound to GSNOR and NAD+; O atom of hydroxyl to C atom of carbonyl. The source says: Single crystal x-ray diffraction is a method useful to understanding the 3-dimensional structure of the binding pocket. The solved crystal structures offer significant information about the GSNOR binding pocket and the interactions of the inhibitors within the binding site. The crystal structure of the ternary complex of GSNOR, NAD+, and Compound IV-10 (Table 4, Example 1) (4-(7-hydroxy-4-oxo-2-(trifluoromethyl)-4H-chromen-3-yl)benzoic acid) was solved. The enzyme-ligand complex crystallized as a homodimer with Compound IV-10 binding to each GSNOR monomer. The key pharmacophores identified from the ternary complex of GSNOR inhibitor with GSNOR and NAD+ are the hydroxyl group on the bicyclic ring of Compound IV-10, which hydrogen bonds to histidine 66, cysteine 44, cysteine 173 and threonine 46. This hydroxyl group is also part of the Zn complex to histidine 66, cysteine 44, and cysteine 173 and threonine 46. The carboxylic acid of Compound IV-10 hydrogen bonds to the glutamine 111 and forms a salt bridge with lysine 283. […]
Once the crystal structures were solved, a distance measurement was made. […] For the second crystal structure with Compound V-1 bound to GSNOR and NAD+, the distance between the hydroxyl group and the carboxylic acid found to be 12.34 Å (measured in the same manner as described above). […]

Data set [3] is described as follows: Mouse pharmacokinetic (PK) study. It is filed as in vivo. The note with it: male, BALB/c, plasma, po, 10 mg/kg, male BALB/c mice, 2 mg/kg IV, 10 mg/kg PO, read-out: oral bioavailability (% F). The source says:
The mouse was used to determine the pharmacokinetics of compounds of the invention. This species is widely used to assess the bioavailability of compounds by administering both oral (PO) and intravenous (IV) test articles. Efficacy of the compounds of the invention was compared by assessing plasma exposure in male BALB/c mice either via IV or PO administration at the times of peak activity.
Compounds of the invention were reconstituted in a phosphate buffered saline (PBS)/10% Solutol (HS 15) clear solution resulting in a concentration of 0.2 mg/mL and administered to mice (2 mg/kg) as a single IV dose. Animals were dosed via the lateral tail vein. Blood samples were collected at designated time points (0.083, 0.25, 0.5, 1, 2, 4, 8, 16, 24 hours) by cardiac puncture under isoflurane anesthesia (up to 1 mL blood per animal). The blood was collected into tubes containing Li-Heparin. The blood samples were kept on ice until centrifugation within approximately 30 minutes of collection. The plasma was transferred into labeled polypropylene tubes and frozen at −70° C. until analyzed by LC/MS/MS.
The compounds of the invention were reconstituted in 40% Propylene Glycol/40% Propylene Carbonate/20% of a 5% Sucrose clear solution resulting in a concentration of 2 mg/mL and administered to mice (10 mg/kg) as a single oral dose via gavage. Blood samples were collected at 0.25, 0.5, 1, 2, 4, 8, 12, 16, 20 and 24 hours post dose by cardiac puncture under isoflurane anesthesia. The blood was collected in tubes containing Li-Heparin. The blood samples were kept on ice until centrifugation within approximately 30 minutes of collection. The plasma was transferred into labeled polypropylene tubes and frozen at −70° C. until analyzed by LC/MS/MS.
Plasma samples at each timepoint were analyzed using a LC-MS/MS with a lower limit of quantification (LLOQ) of 1 ng/mL. Plasma was analyzed to determine the amount of the compound of the invention in each sample and regression curves generated for each compounds of the invention in the relevant matrixes.
WinNonlin analysis was used for calculating PK parameters for both the IV and PO administrations:
PK parameters for IV portion—AUClast; AUCINF; T1/2; Cl; Vss; Cmax; MRT
PK parameters for PO portion—AUClast; AUCINF; T1/2; Cmax; Cl, MRT.
In addition to the above PK parameters, bioavailability (% F) was calculated.

In data set [4] the test system is dextran sodium sulfate (DSS)-induced IBD. The data set is described as follows: Acute prophylactic model of DSS-induced IBD. It is filed as in vivo, mouse. The source says:
Acute and chronic models of dextran sodium sulfate (DSS)-induced IBD in mice were used to explore efficacy of GSNORi against this disease. Acute and chronic DSS-induced IBD are widely used and well characterized models that induce pathological changes in the colon similar to those observed in the human disease. In these models and in human disease, epithelial cells within the crypts of the colon are disrupted, leading to dysfunction of the epithelial barrier and the ensuing tissue inflammation, edema, and ulceration. GSNORi therapy may benefit IBD by restoring s-nitrosoglutathione (GSNO) levels, and thus prevent or reverse the epithelial barrier dysfunction. Experimental IBD was induced by administration of DSS in the drinking water of male C57Bl/6 mice (N=8 to 10 mice per group) for 6 consecutive days. GSNORi was dosed orally at doses of 0.1 to 10 mg/kg/day for 10 days starting two days prior to and continuing two days post DSS exposure. […] Levels of circulating cytokines involved in inflammatory pathways were also assessed. The effect of GSNORi was compared to vehicle treated controls. […] Naïve mice (N=5) were also assessed as a normal tissue control.

Data set [5] has as its system cigarette smoke-induced COPD. Put plainly: Acute (4 day) cigarette smoke exposure COPD model. It is filed as in vivo, mouse. To be noted: acute 4 day smoke model. How it is done:
The efficacy of GSNOR inhibitors was assessed in a mouse model of chronic obstructive pulmonary disease (COPD) induced by short duration (4 days or 11 days) of exposure to cigarette smoke. Infiltration of inflammatory cells into the bronchoalveolar lavage fluid (BALF) and BALF levels of chemokines involved in inflammation and tissue turnover/repair were measured to assess the influences of GSNOR inhibitors on some of the early events associated with the initiation and progression of COPD.
Efficacy of GSNOR inhibitors against COPD was explored using acute (4 day) and subchronic (11 day) models of cigarette smoke-induced COPD in mice. […] In animal models, changes in lung pathology are only evident after extended (several months) duration of exposure to cigarette smoke, thus making chronic models prohibitive as effective screening tools. More recently, models exploring inflammatory responses after short duration (2 weeks or less) of smoke exposure in mice have been utilized as tools for screening efficacy and mechanisms of action of novel therapeutics against COPD. The key roles of inflammation in the initiation and progression of COPD, make these short duration models relevant for initial tests of efficacy of novel therapeutics.
Female C57Bl/6 mice (N=8 per group) were exposed to cigarette smoke using a whole body exposure chamber. Mice were exposed daily for 4 consecutive days to 4 cycles of smoke from 6 sequential cigarettes (Kentucky 3R4F without filter) with a 30 minute smoke free interval between cycles. GSNOR inhibitors were administered daily via oral dosing at 10 mg/kg/day for 7 days starting 2 days prior to smoke exposure and continuing 1 day post-exposure. The effects of GSNOR inhibitors were assessed by quantitating the numbers of total cells, leukocytes, and leukocytes differentials in the BALF via light microscopy and the levels of BALF chemokines via ELISA at approximately 24 h after the last smoke exposure. The effect of GSNOR inhibitors were compared to vehicle treated controls. The PDE4 inhibitor, roflumilast, was used as the positive control for the study. A group of naïve mice (N=8) was exposed to air and used as a negative control for the study.

[6] abbreviates: GSNOR inhibitor activity, Tables 1-6, read-out: IC50 range.

For orientation: IC50 means the concentration at which inhibition is half-maximal. As a reminder, the bioavailability is the share of a dose that reaches the circulation, judged against a reference dose that is usually intravenous.

Read-outs that look alike come from different tables or passages of the source.

T1 sequence (P11766 whole entry): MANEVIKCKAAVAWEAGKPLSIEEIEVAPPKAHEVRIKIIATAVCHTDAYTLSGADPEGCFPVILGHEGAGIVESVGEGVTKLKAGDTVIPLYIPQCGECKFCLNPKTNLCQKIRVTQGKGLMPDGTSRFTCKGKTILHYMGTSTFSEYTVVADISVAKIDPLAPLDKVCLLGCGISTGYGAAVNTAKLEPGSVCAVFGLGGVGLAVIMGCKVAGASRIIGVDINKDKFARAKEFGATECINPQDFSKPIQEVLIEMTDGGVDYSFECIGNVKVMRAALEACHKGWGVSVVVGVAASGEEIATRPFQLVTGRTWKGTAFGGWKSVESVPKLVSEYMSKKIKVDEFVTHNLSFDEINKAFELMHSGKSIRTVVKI
T2 sequence (P11766 whole entry): as above

Molecule `O=C(O)c1ccc(Oc2c(C(F)(F)F)oc3cc(O)ccc3c2=O)cc1` [Compound V-1, 4-(7-hydroxy-4-oxo-2-(trifluoromethyl)-4H-chromen-3-yloxy)benzoic acid] displayed an IC50 in data set [1] of 100 to 1000 nM. The “distance between the hydroxyl group and the carboxylic acid” value in data set [2] is 12.34 Å.

Take `O=C(O)c1ccc(-c2c(C(F)(F)F)oc3cc(O)ccc3c2=O)cc1` [IV-10, 4-(7-hydroxy-4-oxo-2-(trifluoromethyl)-4H-chromen-3-yl)benzoic acid]: the IC50 in data set [1] (setting [6]) is under 100 nM. Further, the bioavailability in data set [3] is over 9%. The “distance between the hydroxyl group and the carboxylic acid” value in data set [2] worked out at 12.07 Å.

Regarding `O=C(O)c1ccc(-c2ccc3cc(O)ccc3n2)cc1` [Compound I-3], the circulating inflammatory cytokines result in data set [4] (oral 0.1, 1, or 10 mg/kg/day for 10 days) is given as “restored circulating inflammatory cytokines towards levels observed in untreated naïve mice”. The “effects compared with prednisolone” value in data set [4] (prednisolone 3 mg/kg/day oral) is “comparable to or greater than those observed for prednisolone”. The IC50 in data set [1] (setting [6]) is under 100 nM. For the same molecule, the “effects compared with roflumilast” value in data set [5] is listed as “comparable to or greater than those observed for roflumilast”. In addition, the BALF chemokines entry in data set [5] (oral 10 mg/kg/day for 7 days) was “restored BALF chemokines towards levels observed in naïve mice”.
